The numbers were not newly measured in patent US20050070514A1, “Therapies for treating respiratory diseases” (priority 2001, published 2005), which cites them from elsewhere.

For this data set the following is noted: developed as an antidepressant.

For `COc1ccc(C2CNC(=O)C2)cc1OC1CCCC1` (stereo not shown) [rolipram], the “side effects in clinical studies” value is “has psychotropic activity and produces gastrointestinal effects, e.g., pyrosis, nausea and emesis”.
